Measurements as given in patent publication US6573218B1, “Fused-benzene derivatives useful as herbicides” (Ishihara Sangyo Kaisha, Ltd., priority 1998, dated 2003).

What was measured:
Type in all cases: in vivo
[1] = tested on: upland rice (Ory0a sp., var.Tebonnet, RICE); experiment: Pre-emerge greenhouse crop damage test; conditions: in vivo
Source text: (§1) A standard greenhouse herbicide activity screening system was used to evaluate the herbicidal efficacy and crop safety of these test compounds. Seven broadleaf weed species including redroot pigweed (Amaranthus retroflexus, AMARE), velvetleaf (Abutilon theophrasti, ABUTH), sicklepod (Cassia obtusifolia, CASOB), ivyleaf morningglory (Ipomoea hederacea, IPOHE), lambsquarters (Chenopodium album, CHEAL), common ragweed (Ambrosia artemisiifolia L., AMBEL), and cocklebur (Xanthium strumarium, XANST) were used as test species. Four grass weed species including green foxtail (Setaria viridis, SETVI), barnyardgrass (Echinochloa crus-galli, ECHCG), johnsongrass (Sorghum halepense, SORHA), and large crabgrass (Digitaria sanguinalis, DIGSA) were also used. In addition, three crop species, field corn (Zea mays L., var. Dekalb 527, CORN), soybean (Glycine max L., var. Pella 86, SOY), and upland rice (Ory0a sp., var.Tebonnet, RICE) were included.
(§2) All plants were grown in 10 cm square plastic pots which were filled with a sandy loam soil mix. For pre-emerge tests, seeds were planted one day prior to application of the test compounds. For post-emerge tests, seeds were planted 8-21 days prior to the test to allow emergence and good foliage development prior to application of the test substances. At the time of the post-emerge application, plants of all species were usually at the 2-3 leaf stage of development.
(§3) All test compounds were dissolved in acetone and applied to the test units in a volume of 187 l/ha. Test materials were applied at rates ranging from 15 g ai/ha to 1000 g ai/ha using a track sprayer equipped with a TJ8001E even flow flat fan spray nozzle. Plants were arranged on a shelf so that the top of the canopy (post-emerge) or top of the soil surface (pre-emerge) was 40-45 cm below the nozzle. Pressurized air was used to force the test solution through the nozzle as it was mechanically advanced over the top of all test plants/pots. This application simulates a typical commercial field herbicide application.
(§4) In the post-emerge test, a commercial non-ionic surfactant was also included (0.25% v/v) to enhance wetting of the leaf surfaces of target plants. Immediately after application, test units of the pre-emerge applications were watered at the soil surface to incorporate the test materials.
(§5) At 14 days after application of the test materials, phytotoxicity ratings were recorded. A rating scale of 0-100 was used as previously described in Research Methods in Weed Science, 2nd edition, B. Truelove, Ed., Southern Weed Science Society, Auburn University, Auburn, Ala., 1977. Briefly, “0” corresponds to no damage and “100” corresponds to complete death of all plants in the test unit. This scale was used both to determine efficacy against weed species and damage to crop species. Herbicide activity data for various compounds of this invention, which are shown by compound No. in Tables 1-14, are shown in Tables 16 and 17.

[2] = tested on: soybean (Glycine max L., var. Pella 86, SOY); experiment: Pre-emerge greenhouse crop damage test
Source text: as §1, §2, §3, §4, §5

[3] = tested on: field corn (Zea mays L., var. Dekalb 527, CORN); experiment: Pre-emerge greenhouse crop damage test
Source text: as §1, §2, §3, §4, §5

[4] = tested on: johnsongrass (Sorghum halepense, SORHA); experiment: Pre-emerge greenhouse herbicide test; conditions: 250 g ai/ha, 14 days after application, scale 0-100 (0 no damage, 100 complete death)
Source text: as §1, §2, §3, §4, §5

[5] = tested on: sicklepod (Cassia obtusifolia, CASOB); experiment: Pre-emerge greenhouse herbicide test; conditions: 250 g ai/ha, 14 days after application, scale 0-100 (0 no damage, 100 complete death)
Source text: as §1, §2, §3, §4, §5

[6] = tested on: ivyleaf morningglory (Ipomoea hederacea, IPOHE); experiment: Pre-emerge greenhouse herbicide test; conditions: 250 g ai/ha, 14 days after application, scale 0-100 (0 no damage, 100 complete death)
Source text: as §1, §2, §3, §4, §5

[7] = tested on: velvetleaf (Abutilon theophrasti, ABUTH); experiment: Pre-emerge greenhouse herbicide test; conditions: 250 g ai/ha, 14 days after application, scale 0-100 (0 no damage, 100 complete death)
Source text: as §1, §2, §3, §4, §5

[8] = tested on: barnyardgrass (Echinochloa crus-galli, ECHCG); experiment: Pre-emerge greenhouse herbicide test; conditions: 250 g ai/ha, 14 days after application, scale 0-100 (0 no damage, 100 complete death)
Source text: as §1, §2, §3, §4, §5

[9] = tested on: large crabgrass (Digitaria sanguinalis, DIGSA); experiment: Pre-emerge greenhouse herbicide test; conditions: 250 g ai/ha, 14 days after application, scale 0-100 (0 no damage, 100 complete death)
Source text: as §1, §2, §3, §4, §5

[10] = tested on: green foxtail (Setaria viridis, SETVI); experiment: Pre-emerge greenhouse herbicide test; conditions: 250 g ai/ha, 14 days after application, scale 0-100 (0 no damage, 100 complete death)
Source text: as §1, §2, §3, §4, §5

[11] = tested on: lambsquarters (Chenopodium album, CHEAL); experiment: Pre-emerge greenhouse herbicide test; conditions: 250 g ai/ha, 14 days after application, scale 0-100 (0 no damage, 100 complete death)
Source text: as §1, §2, §3, §4, §5

[12] = tested on: redroot pigweed (Amaranthus retroflexus, AMARE); experiment: Pre-emerge greenhouse herbicide test; conditions: 250 g ai/ha, 14 days after application, scale 0-100 (0 no damage, 100 complete death)
Source text: as §1, §2, §3, §4, §5

[13] = tested on: upland rice (Ory0a sp., var.Tebonnet, RICE); experiment: Post-emerge greenhouse crop damage test
Source text: as §1, §2, §3, §4, §5

[14] = tested on: soybean (Glycine max L., var. Pella 86, SOY); experiment: Post-emerge greenhouse crop damage test
Source text: as §1, §2, §3, §4, §5

[15] = tested on: field corn (Zea mays L., var. Dekalb 527, CORN); experiment: Post-emerge greenhouse crop damage test
Source text: as §1, §2, §3, §4, §5

[16] = tested on: johnsongrass (Sorghum halepense, SORHA); experiment: Post-emerge greenhouse herbicide test; conditions: 250 g ai/ha, 14 days after application
Source text: as §1, §2, §3, §4, §5

[17] = tested on: sicklepod (Cassia obtusifolia, CASOB); experiment: Post-emerge greenhouse herbicide test; conditions: 250 g ai/ha, 14 days after application
Source text: as §1, §2, §3, §4, §5

[18] = tested on: ivyleaf morningglory (Ipomoea hederacea, IPOHE); experiment: Post-emerge greenhouse herbicide test; conditions: 250 g ai/ha, 14 days after application
Source text: as §1, §2, §3, §4, §5

[19] = tested on: velvetleaf (Abutilon theophrasti, ABUTH); experiment: Post-emerge greenhouse herbicide test; conditions: 250 g ai/ha, 14 days after application
Source text: as §1, §2, §3, §4, §5

[20] = tested on: barnyardgrass (Echinochloa crus-galli, ECHCG); experiment: Post-emerge greenhouse herbicide test; conditions: 250 g ai/ha, 14 days after application
Source text: as §1, §2, §3, §4, §5

[21] = tested on: large crabgrass (Digitaria sanguinalis, DIGSA); experiment: Post-emerge greenhouse herbicide test; conditions: 250 g ai/ha, 14 days after application
Source text: as §1, §2, §3, §4, §5

[22] = tested on: green foxtail (Setaria viridis, SETVI); experiment: Post-emerge greenhouse herbicide test; conditions: 250 g ai/ha, 14 days after application
Source text: as §1, §2, §3, §4, §5

[23] = tested on: lambsquarters (Chenopodium album, CHEAL); experiment: Post-emerge greenhouse herbicide test; conditions: 250 g ai/ha, 14 days after application
Source text: as §1, §2, §3, §4, §5

[24] = tested on: redroot pigweed (Amaranthus retroflexus, AMARE); experiment: Post-emerge greenhouse herbicide test; conditions: 250 g ai/ha, 14 days after application
Source text: as §1, §2, §3, §4, §5

[25] = pre-emerge, 250 g ai/ha, 14 days after application, scale 0-100 (0 no damage, 100 complete death)
[26] = 250 g ai/ha, post-emerge, 14 days after application
[27] = var. Pella 86, soybean (Glycine max L.), in vivo, 14 days
[28] = var. Dekalb 527, field corn (Zea mays L.), in vivo, 14 days

SMILES | Pre-emerge Herbicidal Activity RICE (crop damage rating) [1] | Pre-emerge Herbicidal Activity SOY (crop damage rating) [2, 25] | Pre-emerge Herbicidal Activity SORHA (phytotoxicity rating) [4] | Pre-emerge Herbicidal Activity CASOB (phytotoxicity rating) [5] | Pre-emerge Herbicidal Activity IPOHE (phytotoxicity rating) [6] | Pre-emerge Herbicidal Activity ABUTH (phytotoxicity rating) [7] | Pre-emerge Herbicidal Activity ECHCG (phytotoxicity rating) [8] | Pre-emerge Herbicidal Activity DIGSA (phytotoxicity rating) [9] | Pre-emerge Herbicidal Activity SETVI (phytotoxicity rating) [10] | Pre-emerge Herbicidal Activity CHEAL (phytotoxicity rating) [11] | Pre-emerge Herbicidal Activity AMARE (phytotoxicity rating) [12] | Post-emerge Herbicidal Activity SORHA (phytotoxicity rating 0-100) [16] | Post-emerge Herbicidal Activity CASOB (phytotoxicity rating 0-100) [17] | Post-emerge Herbicidal Activity IPOHE (phytotoxicity rating 0-100) [18] | Post-emerge Herbicidal Activity ABUTH (phytotoxicity rating 0-100) [19] | Post-emerge Herbicidal Activity ECHCG (phytotoxicity rating 0-100) [20] | Post-emerge Herbicidal Activity DIGSA (phytotoxicity rating 0-100) [21] | Post-emerge Herbicidal Activity SETVI (phytotoxicity rating 0-100) [22] | Post-emerge Herbicidal Activity CHEAL (phytotoxicity rating 0-100) [23] | Post-emerge Herbicidal Activity AMARE (phytotoxicity rating 0-100) [24] | further results
CCOC(=O)c1nc2c(-n3c(=O)cc(C(F)(F)F)n(C)c3=O)c(F)cc(Cl)c2oc1=O [Compound 3-5] | 0 | 0 | 0 | 0 | 0 | 65 | 0 | 0 | 0 | 70 | 50 | 0 | 0 | 0 | 60 | 0 | 0 | 10 | 0 | 20 | Pre-emerge Herbicidal Activity CORN (crop damage rating) [3, 25]: 0; Post-emerge crop damage RICE (phytotoxicity rating 0-100) [13, 26]: 0; Post-emerge crop damage SOY (phytotoxicity rating 0-100) [14, 26]: 0; Post-emerge crop damage CORN (phytotoxicity rating 0-100) [15, 26]: 0
Cn1c(C(F)(F)F)cc(=O)n(-c2c(F)cc(Cl)c3c2NC(=O)CO3)c1=O [Compound 4-1] | 90 | 100 | 95 | 100 | 100 | 100 | 70 | 100 | 100 | 100 | 100 | 40 | 80 | 100 | 100 | 30 | 30 | 10 | 100 | 100 | Pre-emerge Herbicidal Activity CORN (crop damage rating) [3, 25]: 90; Post-emerge crop damage RICE (phytotoxicity rating 0-100) [13, 26]: 65; Post-emerge crop damage SOY (phytotoxicity rating 0-100) [14, 26]: 100; Post-emerge crop damage CORN (phytotoxicity rating 0-100) [15, 26]: 70
CC1Oc2c(Cl)cc(F)c(-n3c(=O)cc(C(F)(F)F)n(C)c3=O)c2NC1=O (stereo not drawn) [Compound 4-3, 3-(8-Chloro-6-fluoro-2-methyl-2H-1,4-benzoxazin-3-one-5-yl)-1-methyl-6-trifluoromethyl-2,4(1H,3H)-pyrimidindione] |  |  | 100 | 100 | 100 | 100 | 99 | 100 | 100 | 100 | 100 | 90 | 95 | 100 | 100 | 80 | 70 | 50 | 100 | 100 | Pre-emerge Herbicidal Activity RICE (crop damage rating) ([1]; var. Tebonnet, upland rice (Ory0a sp.), 14 days): 99; Pre-emerge Herbicidal Activity SOY (crop damage rating) [2, 27]: 100; Pre-emerge Herbicidal Activity CORN (crop damage rating) [3, 28]: 99; Post-emerge crop damage RICE (phytotoxicity rating 0-100) ([13]; var. Tebonnet, upland rice (Ory0a sp.), in vivo, 14 days): 80; Post-emerge crop damage SOY (phytotoxicity rating 0-100) [14, 27]: 100; Post-emerge crop damage CORN (phytotoxicity rating 0-100) [15, 28]: 100
